The values below come from ChEMBL document CHEMBL1131699, “Monoacetyldiglycerides as new Ca2+ mobilizing agents in rat pancreatic acinar cells” (1999).

The species named for test [1] is Rattus norvegicus. Put plainly: Compound was tested in vitro for its ability to increase [Ca+2] in pancreatic acinar cells at a concentration of 0.01 mg/mL. It counts as functional.
Test [2] is filed under the species Rattus norvegicus. The test is described as follows: Compound was tested in vitro for its ability to increase the rate of [Ca+2] mobilization in pancreatic acinar cells. It counts as functional.
The species named for test [3] is Rattus norvegicus. Put plainly: Compound was tested in vitro for its ability to increase [Ca+2] in pancreatic acinar cells at a concentration of 0.01 mg/mL; Active. It counts as functional, cell-based.

Activity calls are given as the source filed them. No cut-off for these calls is given here.

On to `CCCCC/C=C\C/C=C\C/C=C\C/C=C\CCCC(=O)OC(COC(C)=O)COC(=O)CCCCCCCCCCCCCCC` (centres undefined), for which the “Increase in [Ca+2]” value in the test filed under Rattus norvegicus [1] worked out at 32.8 nM. Regarding `CC/C=C\C/C=C\C/C=C\C/C=C\C/C=C\C/C=C\CCC(=O)OC(COC(C)=O)COC(=O)CCCCCCCCCCCCCCC` (centres undefined), the “Increase in [Ca+2]” value in the test filed under Rattus norvegicus [1] was determined as 75.2 nM. The “Rate of [Ca+2] increase” value in the test filed under Rattus norvegicus [2] was 26.7 nM/min. Consider `CC/C=C\C/C=C\C/C=C\CCCCCCCC(=O)OC(COC(C)=O)COC(=O)CCCCCCCCCCCCCCC` (centres undefined), for which the “Increase in [Ca+2]” value in the test filed under Rattus norvegicus [3] is “Active”. The same measure, in the same setting: the result for `CCCCCCCCCCCCCCCC(=O)OCC(COC(C)=O)OC(=O)[C@H]1C[C@@H]1c1ccccc1` (some centres undefined) reads “Active”.

For the compound `CCCCC/C=C\C/C=C\CCCCCCCC(=O)OC(COC(C)=O)COC(=O)CCCCCCCCCCCCCCC` (centres undefined) [MOSEDIPIMOD], the “Increase in [Ca+2]” value in the test filed under Rattus norvegicus [1] was 84.9 nM. The “Rate of [Ca+2] increase” value in the test filed under Rattus norvegicus [2] was 9.8 nM/min. `CCCCCCCC/C=C\CCCCCCCC(=O)OC(COC(C)=O)COC(=O)CCCCCCCCCCCCCCC` (centres undefined): the “Increase in [Ca+2]” value in the test filed under Rattus norvegicus [1] was 26.6 nM.

As for `CCCCCCCC/C=C\CCCCCCCC(=O)OCC(COC(C)=O)OC(=O)CCCCCCCCCCCCCCC` (centres undefined), the “Increase in [Ca+2]” value in the test listed under Rattus norvegicus [1] is recorded as 31.2 nM.
